In US20220227729A1, “IDENTIFICATION AND USE OF KRAS INHIBITORS” (Bayer Aktiengesellschaft, priority 2019, published 2022):

Legend:
KRAS^WT = KRAS^WT (Homo sapiens, UniProt P01116); test: Wild-type KRAS activation by SOS1cat assay, HTRF; details: SOS1cat mediated loading of GST-KRAS WT-GDP with fluorescent GTP analogue; 50 nM GST-KRAS WT; read-out: IC50 value biochemical KRAS^wt activation assay
Procedure: (§1) Preparation of test compound dilutions. A 100-fold concentrated solution of the test compound (50 nL) in DMSO was transferred to microtiter test plates (384 or 1,536 wells, Greiner Bio-One, Germany) using either a Hummingbird liquid handler (Digilab, MA, USA) or an Echo acoustic system (Labcyte, CA, USA). Plates were sealed with adhesive foil or heat-sealed and stored at −20° C. until use. Serial dilutions of test compounds were prepared in 100% DMSO using a Precision Pipetting System (BioTek, USA).
(§2) Measurement and evaluation of inhibition data, calculation of IC50 values. Homogeneous time-resolved fluorescence (HTRF) was measured with a PHERAstar reader (BMG, Germany) using the HTRF module (excitation: 337 nm; emission 1: 620 nm, emission 2: 665 nm). The ratio of the emissions at 665 and 620 nm was used as the specific signal for further evaluation. The data were normalized using the controls: DMSO=0% inhibition, inhibition control wells with inhibitor control solution=100% inhibition. Compounds were tested in duplicates at up to 11 concentrations (e.g. 20 μM, 5.7 μM, 1.6 μM, 0.47 μM, 0.13 μM, 38 nM, 11 nM, 3.1 nM, 0.89 nM, 0.25 nM and 0.073 nM). IC50 values were calculated using a four-parameter fit, with a commercial software package (Genedata Screener, Switzerland).
(§3) KRAS^G12C activation by SOS1^cat assay (“On-assay”). This assay quantifies SOS1^cat mediated loading of KRAS^G12C-GDP with a fluorescent GTP analogue. Detection of successful loading was achieved by measuring resonance energy transfer from anti-GST-terbium (FRET donor) bound to GST-KRAS^G12c to the loaded fluorescent GTP analogue (FRET acceptor). The fluorescent GTP analogue EDA-GTP-DY-647P1 [2′/3′-O-(2-aminoethyl-carbamoyl)guanosine-5′-triphosphate labelled with DY-647P1 (Dyomics GmbH, Germany)] was synthesized by Jena Bioscience (Germany) and supplied as a 1 mM aqueous solution. A KRAS^G12C working solution was prepared in assay buffer [10 mM HEPES pH 7.4 (AppliChem), 150 mM NaCl (Sigma), 5 mM MgCl2 (Sigma), 1 mM DTT (Thermo Fisher), 0.05% BSA Fraction V pH 7.0 (ICN Biomedicals), 0.0025% (v/v) Igepal (Sigma)] containing 100 nM GST-KRAS^G12C and 2 nM anti-GST-terbium (Cisbio, France). A SOS1^cat working solution was prepared in assay buffer containing 20 nM SOS1^cat and 200 nM EDA-GTP-DY-647P1. An inhibitor control solution was prepared in assay buffer containing 200 nM EDA-GTP-DY-647P1 without SOS1^cat. All steps of the assay were performed at 20° C. A volume of 2.5 μL of the KRAS^G12C working solution was added to all wells of the test plate using a Multidrop dispenser (Thermo LabSystems). After 180 min, 2.5 μL of the SOS1^cat working solution was added to all wells, except for the inhibitor control solution wells. After 30 min incubation, HTRF was measured.
Wild-type KRAS activation by SOS1^cat assay. This assay quantifies human SOS1^cat mediated loading of wild-type GST-KRAS^WT-GDP with a fluorescent GTP analogue. The assay was performed similar to the KRAS^G12C activation by SOS1^cat assay. GST-KRAS^G12C was replaced by GST-KRAS^WT, which was used at 50 nM final concentration.

KRAS^G12C = KRAS^G12C (Homo sapiens, UniProt P01116, G12C); test: KRAS G12C activation by SOS1cat assay (On-assay), HTRF; details: SOS1cat mediated loading of GST-KRAS G12C-GDP with fluorescent GTP analogue; 180 min preincubation; 20° C.; read-out: IC50 value biochemical KRAS^G12C activation assay
Procedure: as §1, §2, §3

[1] = target: recombinant kRas mutant (G12C; C51S; C80L; C118S) (Homo sapiens, UniProt P01116, C118S/C51S/C80L/G12C); test: Covalent binding assay, intact mass LC-MS; details: 25 μM protein, 25 μM compound, room temperature, 2 h
Procedure: The percentage of covalent adduct formation at KRas G12C was determined by intact mass determination. To this end 25 μM recombinant kRas mutant (G12C; C51S; C80L; C118S) (storage buffer: 50 mM Tris, pH=8; 50 mM NaCl) were incubated with 25 μM of compound (1% v/v final DMSO concentration) at room temperature for 2 h. For LC-MS analysis the reaction was acidified by adding 4 μL of 4% v/v TFA to 20 μL reaction volume.
Liquid chromatography-mass spectrometry (LC-MS) analysis was performed using a Waters SYNAPT G2-S quadrupole time-of-flight mass spectrometer connected to a Waters nanoAcquity UPLC system. Samples were loaded on a 2.1×5 mm mass prep C4 guard column (Waters) and desalted with a short gradient (3 min.) of increasing concentrations of acetonitrile at a flow rate of 100 μL/min. Spectra were analyzed by using MassLynx v4.1 software and deconvoluted with the MaxEnt1 algorithm.
Percent conversion was determined by the ratio of signal intensities of apo-kRas and kRas+inhibitor.

Row | Structure (SMILES) | IC50 (KRAS^WT) [µM] | IC50 (KRAS^G12C) [µM] | Covalent Binding Assay (% binding) [1] [%]
1 | C=CC(=O)N1CCC(c2nc3ccc(-c4cncc5ccccc45)cc3c(=O)[nH]2)C1 (stereo not drawn) [Example 18, 6-(Isoquinolin-4-yl)-2-[1-(prop-2-enoyl)pyrrolidin-3-yl]quinazolin-4(3H)-one] | > 20 | > 20 | 4
2 | C=CC(=O)N1CCC(c2cc3ncc(-c4cc(O)ccc4F)cc3c(=O)[nH]2)C1 (stereo not drawn) [Example 36, 3-(2-Fluoro-5-hydroxyphenyl)-7-[1-(prop-2-enoyl)pyrrolidin-3-yl]-1,6-naphthyridin-5(6H)-one] | > 20 | 2.7 | 85
3 | C=CC(=O)N1CCC(c2nc3cc(Cl)c(-c4c(C)ccc5[nH]ncc45)cc3c(=O)[nH]2)C1 (stereo not drawn) [Example 25, 7-Chloro-6-(5-methyl-1H-indazol-4-yl)-2-[1-(prop-2-enoyl)pyrrolidin-3-yl]quinazolin-4(3H)-one] | > 20 | 5 | 81
4 | C=CC(=O)N1CCC(c2cc3ncc(-c4ccc(F)cc4F)cc3c(=O)[nH]2)C1 (stereo not drawn) [Example 31, 3-(2,4-Difluorophenyl)-7-[1-(prop-2-enoyl)pyrrolidin-3-yl]-1,6-naphthyridin-5(6H)-one] | > 20 | > 14 | 62

Second part, the compound after the results:

Row | IC50 (KRAS^WT) [µM] | IC50 (KRAS^G12C) [µM] | Covalent Binding Assay (% binding) [1] [%] | Structure (SMILES)
5 | > 20 | 8.4 | 57 | C=CC(=O)N1CCC(c2nc3ccc(-c4ccc(F)cc4F)cc3c(=O)[nH]2)C1 (stereo not drawn) [Example 13, 6-(2,4-Difluorophenyl)-2-[1-(prop-2-enoyl)pyrrolidin-3-yl]quinazolin-4(3H)-one]
6 | > 20 | > 20 | 4 | C=CC(=O)N1CCC(c2nc3ccc(-c4sc(C)nc4C)cc3c(=O)[nH]2)C1 (stereo not drawn) [Example 19, 6-(2,4-dimethyl-1,3-thiazol-5-yl)-2[1-(prop-2-enoyl)pyrrolidin-3-yl]quinazolin-4(3H)-one]
7 | > 20 | 6.2 | 70 | C=CC(=O)N1CCC(c2nc3ccc(-c4ccccc4F)cc3c(=O)[nH]2)C1 (stereo not drawn) [Example 12, 6-(2-Fluorophenyl)-2-[1-(prop-2-enoyl)pyrrolidin-3-yl]quinazolin-4(3H)-one]
